# Results: patent US8211462B2, “Hot-melt TTS for administering rotigotine” (UCB Pharma GmbH, priority 2002, dated 2012)
# Tests used:
# [1] = Active-substance stability: rotigotine purity in the cement matrix by gradient HPLC; format: physicochemical; settings: hot-melt processing
# Description: The cement matrix was mixed with 0.1% methane sulfonic acid, agitated, centrifuged and measured. (b3) Analytics of the Active-Substance Stability: […] Column: LiChrosphere 100 CN, 125 mm×4.6 mm, 5 μm. Flow rate: 1.0 mL, column temperature: 40° C. UV detection (2 wavelengths: 272 and 220 nm).
# [2] = Solubility of rotigotine in hydrophobic adhesives; format: physicochemical
smiles,measurement,setting,value
"CCCN(CCc1cccs1)[C@H]1CCc2c(O)cccc2C1 [rotigotine, (−)-5,6,7,8-tetrahydro-6-[propyl[2-(2-thienyl)ethyl-)amino]-1-naphthol]",remains stable under short-term heating to temperatures up to,[1],at least 160 °C
same,solubility of rotigotine in hydrophobic adhesives such as silicones,[2],soluble in trace amounts only
